Measured values from US11291712B2, “Bacterial protein compositions and uses thereof” (The United States Government as Represented by the …, priority 2017, dated 2022).
Entries after “also recorded” stand apart in the source; their conditions may differ.

What was measured:
[1] = tested on: A. baumannii strain AB5075 VIR-O and AV-T variants; experiment: Antimicrobial killing assays (time-kill); type: cell-based, Acinetobacter baumannii; conditions: equal mixture of VIR-O and AV-T, 1 hour, CRAMP 10 μg/mL, lysozyme 10 mg/mL, LL-37 15 μg/mL, H2O2 0.01%
Procedure: An equal mixture of VIR-O and AV-T variants were grown to early-log phase in 2 mL LB broth, or LB with tetracycline 6 μg/mL for strains with plasmids. A 5 μL aliquot of each culture was mixed together in 250 μL of 0.1× tryptone/yeast extract (1 g tryptone, 0.5 g yeast extract/liter). Cells were mixed by vortexing and serial dilutions were plated on 0.5×LB agar plates to assess the initial CFU's for both VIR-O and AV-T variants. Various antimicrobials were then added at the following final concentrations: CRAMP (10 μg/mL), lysozyme (10 mg/mL), LL-37 (15 μg/mL) and H2O2. (0.01%). Cells were treated for 1 hour and dilutions were plated on 0.5×LB agar plates to enumerate the surviving VIR-O and AV-T variants.

[2] = tested on: A. baumannii strain AB5075 VIR-O and AV-T cells; experiment: Sensitivity to disinfectants; type: cell-based, Acinetobacter baumannii; conditions: BZT 0.01%, BAK 0.004%, CHG 0.008%; 30 min at room temperature
Procedure: Overnight standing bacterial cultures at room temperature were sub-cultured in LB broth and grown at 37° C. with shaking to an OD600˜0.15. Nine hundred ninety microliters of culture were then added to tubes containing 10 μL of the appropriated disinfectants, BZT (Sigma-Aldrich), BAK (Sigma-Aldrich) and CHG (Sigma-Aldrich), respectively. Tubes were incubated at room temperature for 30 min. Cultures were then serially diluted and plated for CFU enumerations.

Molecule	survival of VIR-O (O) cells compared to AV-T (T) cells after treatment with the antimicrobial [1]	survival of VIR-O (O) cells compared to AV-T (T) cells after treatment with the antimicrobial ([1]; listed as hydrogen peroxide)	resistance of VIR-O (O) cells to the disinfectant compared to AV-T (T) cells [2]
OO [H2O2, hydrogen peroxide]	resistant	VIR-O cells vastly outnumbered AV-T cells	–
CC(C)(C)CC(C)(C)c1ccc(OCCOCC[N+](C)(C)Cc2ccccc2)cc1 [benzethonium chloride]	–	–	more resistant; also recorded: increased resistance
N=C(NCCCCCCNC(=N)NC(=N)Nc1ccc(Cl)cc1)NC(=N)Nc1ccc(Cl)cc1.O=C(O)[C@H](O)[C@@H](O)[C@H](O)[C@H](O)CO.O=C(O)[C@H](O)[C@@H](O)[C@H](O)[C@H](O)CO [chlorhexidine gluconate]	–	–	more resistant; also recorded: increased resistance
CRAMP: murine cationic antimicrobial peptide (ISRLAGLLRKGGEKIGEKLKKIGQKIKNFFQKLVPQPE; UniProt P51437 135-172, looked up)	resistant; also recorded: VIR-O cells vastly outnumbered AV-T cells	–	–
LL-37: human antimicrobial peptide, the human orthologue of CRAMP	VIR-O cells also outnumbered AV-T; also recorded: resistant	–	–
benzalkonium chloride	–	–	more resistant; also recorded: increased resistance
lysozyme	resistant; also recorded: VIR-O cells vastly outnumbered AV-T cells	–	–
